# Results published in patent publication US20260217701A1, “SELECTIVE BET INHIBITORS AND USES THEREOF” (Tay Therapeutics Limited, priority 2022, published 2026).
# Where “and” joins values, the source holds several entries; their conditions need not be identical. Identical values can stand only once. Like-named read-outs stand apart in the source and are kept apart here.
# Assay: CIA study: pharmacokinetics / plasma concentration after oral administration
# Format: in vivo, Lewis rats
# Conditions: for concentration at 21 day: oral
# [1] = CIA-induced animals, day 0, 3 mg/kg, average
# [2] = CIA-induced animals, day 0, 3 mg/kg, individual test subjects
# [3] = CIA-induced animals, day 21, 3 mg/kg, average
# [4] = CIA-induced animals, day 21, 3 mg/kg, individual test subjects
compound,measurement,setting,value
"Cn1cc(-c2ccccc2)c(-c2cn(C)c(=O)c3[nH]c(-c4cnn(C(F)(F)F)c4)cc23)cc1=O [Compound A, 6-methyl-4-(1-methyl-2-oxo-5-phenyl-1,2-dihydropyridin-4-yl)-2-(1-(trifluoromethyl)-1H-pyrazol-4-yl)-1,6-dihydro-7H-pyrrolo[2,3-c]pyridin-7-one]",AUClast/D (Mean),[1],509 mg·h/mL
same,AUC—%Extrap—obs (Mean),[1],14.0%
same,AUCInf,[2],1393 ng·h/mL and 1454 ng·h/mL
same,AUClast,[2],1250 ng·h/mL and 1264 ng·h/mL
same,AUC—%Extrap—obs,[2],18.6% and 10.3% and 13.1%
same,Cmax,[2],77.9 ng/mL and 82.6 ng/mL
same,MRTInf—obs,[2],10.7 h and 11.8 h
same,T1/2,[2],7.03 h and 7.60 h
same,AUClast/D (Mean),[3],246 mg·h/mL
same,AUC—%Extrap—obs (Mean),[3],17.3%
same,MRTlnf—obs (Mean),[3],13.5 h
same,AUCInf,[4],1059 ng·h/mL and 985 ng·h/mL
same,AUClast,[4],826 ng·h/mL and 784 ng·h/mL
same,AUC—%Extrap—obs,[4],9.67% and 22.0% and 20.4%
same,Cmax,[4],51.2 ng/mL and 45.7 ng/mL
same,MRTInf—obs,[4],15.5 h and 14.9 h
same,T1/2,[4],10.3 h and 9.68 h
same,Plasma Concentration,"Day 21, CIA rats, 1 mg/kg",12.8 ng/mL and 14.5 ng/mL and 13.9 ng/mL and 14.3 ng/mL and 21.1 ng/mL and 20.6 ng/mL
same,Plasma Concentration,"Day 21, CIA rats, 10 mg/kg",181 ng/mL and 240 ng/mL and 230 ng/mL and 264 ng/mL and 174 ng/mL and 255 ng/mL and 248 ng/mL
same,concentration at 21 day,"Lewis, rat, plasma, 1 mg/kg, Day 21, CIA rats, 1 mg/kg, read-out: Plasma Concentration",13 ng/mL
same,concentration at 21 day,"Lewis, rat, plasma, 1 mg/kg, Group 5 (CIA + Compound A 1 mg/kg), read-out: Day 21 Mean Plasma Concentration",15.5 ng/mL
same,concentration at 21 day,"Lewis, rat, plasma, 3 mg/kg, Group 6 (CIA + Compound A 3 mg/kg), read-out: Day 21 Mean Plasma Concentration",49.5 ng/mL
same,concentration at 21 day,"Lewis, rat, plasma, 10 mg/kg, Day 21, CIA rats, 10 mg/kg, read-out: Plasma Concentration",232 ng/mL
same,concentration at 21 day,"Lewis, rat, plasma, 10 mg/kg, Group 7 (CIA + Compound A 10 mg/kg), read-out: Day 21 Mean Plasma Concentration",221 ng/mL
same,AUC(0-inf),"Lewis, rat, plasma, po, 3 mg/kg, CIA-induced animals, day 0, 3 mg/kg, average, read-out: AUCInf (Mean)",1800 ng·h/mL
same,AUC(0-t),"Lewis, rat, plasma, po, 3 mg/kg, CIA-induced animals, day 0, 3 mg/kg, average, read-out: AUClast (Mean)",1530 ng·h/mL
same,Cmax,"Lewis, rat, plasma, po, 3 mg/kg, CIA-induced animals, day 0, 3 mg/kg, average, read-out: Cmax (Mean)",95 ng/mL
same,MRT inf,"Lewis, rat, plasma, po, 3 mg/kg, CIA-induced animals, day 0, 3 mg/kg, average, read-out: MRTInf—obs (Mean)",12.2 h
same,half-life,"Lewis, rat, plasma, po, 3 mg/kg, CIA-induced animals, day 0, 3 mg/kg, average, read-out: T1/2 (Mean) (converted)",7.94 h
same,Tmax,"Lewis, rat, plasma, po, 3 mg/kg, CIA-induced animals, day 0, 3 mg/kg, average, read-out: Tmax (Mean)",5.33 h
same,AUC(0-inf),"Lewis, rat, plasma, po, 3 mg/kg, CIA-induced animals, day 0, 3 mg/kg, individual test subjects, read-out: AUCInf",2540 ng·h/mL
same,AUC(0-t),"Lewis, rat, plasma, po, 3 mg/kg, CIA-induced animals, day 0, 3 mg/kg, individual test subjects, read-out: AUClast",2070 ng·h/mL
same,Cmax,"Lewis, rat, plasma, po, 3 mg/kg, CIA-induced animals, day 0, 3 mg/kg, individual test subjects, read-out: Cmax",123 ng/mL
same,MRT inf,"Lewis, rat, plasma, po, 3 mg/kg, CIA-induced animals, day 0, 3 mg/kg, individual test subjects, read-out: MRTInf—obs",14.1 h
same,half-life,"Lewis, rat, plasma, po, 3 mg/kg, CIA-induced animals, day 0, 3 mg/kg, individual test subjects, read-out: T1/2 (converted)",9.19 h
same,Tmax,"Lewis, rat, plasma, po, 3 mg/kg, CIA-induced animals, day 0, 3 mg/kg, individual test subjects, read-out: Tmax",6 h
same,AUC(0-t),"Lewis, rat, plasma, po, 3 mg/kg, CIA-induced animals, day 21, 3 mg/kg, average, read-out: AUClast (Mean)",738 ng·h/mL
same,Cmax,"Lewis, rat, plasma, po, 3 mg/kg, CIA-induced animals, day 21, 3 mg/kg, average, read-out: Cmax (Mean)",48.4 ng/mL
same,half-life,"Lewis, rat, plasma, po, 3 mg/kg, CIA-induced animals, day 21, 3 mg/kg, average, read-out: T1/2 (Mean) (converted)",8.9 h
same,Tmax,"Lewis, rat, plasma, po, 3 mg/kg, CIA-induced animals, day 21, 3 mg/kg, average, read-out: Tmax (Mean)",5.33 h
same,AUC(0-inf),"Lewis, rat, plasma, po, 3 mg/kg, CIA-induced animals, day 21, 3 mg/kg, individual test subjects, read-out: AUCInf",668 ng·h/mL
same,AUC(0-t),"Lewis, rat, plasma, po, 3 mg/kg, CIA-induced animals, day 21, 3 mg/kg, individual test subjects, read-out: AUClast",604 ng·h/mL
same,Cmax,"Lewis, rat, plasma, po, 3 mg/kg, CIA-induced animals, day 21, 3 mg/kg, individual test subjects, read-out: Cmax",48.3 ng/mL
same,MRT inf,"Lewis, rat, plasma, po, 3 mg/kg, CIA-induced animals, day 21, 3 mg/kg, individual test subjects, read-out: MRTInf—obs",10.1 h
same,half-life,"Lewis, rat, plasma, po, 3 mg/kg, CIA-induced animals, day 21, 3 mg/kg, individual test subjects, read-out: T1/2 (converted)",6.79 h
same,Tmax,"Lewis, rat, plasma, po, 3 mg/kg, CIA-induced animals, day 21, 3 mg/kg, individual test subjects, read-out: Tmax",4 h
same,concentration at 2 h,"Lewis, rat, plasma, po, 3 mg/kg, oral 3 mg/kg, day 0, 2 h, individual test subjects, read-out: Plasma concentration",109 ng/mL
same,concentration at 4 h,"Lewis, rat, plasma, po, 3 mg/kg, oral 3 mg/kg, day 0, 4 h, individual test subjects, read-out: Plasma concentration",112 ng/mL
same,concentration at 6 h,"Lewis, rat, plasma, po, 3 mg/kg, oral 3 mg/kg, day 0, 6 h, individual test subjects, read-out: Plasma concentration",123 ng/mL
same,concentration at 8 h,"Lewis, rat, plasma, po, 3 mg/kg, oral 3 mg/kg, day 0, 8 h, individual test subjects, read-out: Plasma concentration",119 ng/mL
same,concentration at 0.25 h,"Lewis, rat, plasma, po, 3 mg/kg, oral 3 mg/kg, day 0, time 0.25, read-out: Mean Concentration (average plasma concentration)",16.8 ng/mL
same,concentration at 0.5 h,"Lewis, rat, plasma, po, 3 mg/kg, oral 3 mg/kg, day 0, time 0.5, read-out: Mean Concentration (average plasma concentration)",28.1 ng/mL
same,concentration at 1 h,"Lewis, rat, plasma, po, 3 mg/kg, oral 3 mg/kg, day 0, time 1, read-out: Mean Concentration (average plasma concentration)",51.1 ng/mL
same,concentration at 2 h,"Lewis, rat, plasma, po, 3 mg/kg, oral 3 mg/kg, day 0, time 2, read-out: Mean Concentration (average plasma concentration)",79 ng/mL
same,concentration at 4 h,"Lewis, rat, plasma, po, 3 mg/kg, oral 3 mg/kg, day 0, time 4, read-out: Mean Concentration (average plasma concentration)",90 ng/mL
same,concentration at 6 h,"Lewis, rat, plasma, po, 3 mg/kg, oral 3 mg/kg, day 0, time 6, read-out: Mean Concentration (average plasma concentration)",94 ng/mL
same,concentration at 8 h,"Lewis, rat, plasma, po, 3 mg/kg, oral 3 mg/kg, day 0, time 8, read-out: Mean Concentration (average plasma concentration)",90 ng/mL
same,concentration at 24 h,"Lewis, rat, plasma, po, 3 mg/kg, oral 3 mg/kg, day 0, time 24",22.3 ng/mL
same,concentration at 0.25 h,"Lewis, rat, plasma, po, 3 mg/kg, oral 3 mg/kg, day 21, 0.25 h, individual test subjects, read-out: Plasma concentration",18.4 ng/mL
same,concentration at 0.5 h,"Lewis, rat, plasma, po, 3 mg/kg, oral 3 mg/kg, day 21, 0.5 h, individual test subjects, read-out: Plasma concentration",22.2 ng/mL
same,concentration at 1 h,"Lewis, rat, plasma, po, 3 mg/kg, oral 3 mg/kg, day 21, 1 h, individual test subjects, read-out: Plasma concentration",33.6 ng/mL
same,concentration at 2 h,"Lewis, rat, plasma, po, 3 mg/kg, oral 3 mg/kg, day 21, 2 h, individual test subjects, read-out: Plasma concentration",33 ng/mL
same,concentration at 4 h,"Lewis, rat, plasma, po, 3 mg/kg, oral 3 mg/kg, day 21, 4 h, individual test subjects, read-out: Plasma concentration",48.3 ng/mL
same,concentration at 6 h,"Lewis, rat, plasma, po, 3 mg/kg, oral 3 mg/kg, day 21, 6 h, individual test subjects, read-out: Plasma concentration",44.2 ng/mL
same,concentration at 8 h,"Lewis, rat, plasma, po, 3 mg/kg, oral 3 mg/kg, day 21, 8 h, individual test subjects, read-out: Plasma concentration",30.9 ng/mL
same,concentration at 0.25 h,"Lewis, rat, plasma, po, 3 mg/kg, oral 3 mg/kg, day 21, time 0.25, read-out: Mean Concentration (average plasma concentration)",15.4 ng/mL
same,concentration at 0.5 h,"Lewis, rat, plasma, po, 3 mg/kg, oral 3 mg/kg, day 21, time 0.5, read-out: Mean Concentration (average plasma concentration)",21 ng/mL
same,concentration at 1 h,"Lewis, rat, plasma, po, 3 mg/kg, oral 3 mg/kg, day 21, time 1, read-out: Mean Concentration (average plasma concentration)",28.7 ng/mL
same,concentration at 2 h,"Lewis, rat, plasma, po, 3 mg/kg, oral 3 mg/kg, day 21, time 2, read-out: Mean Concentration (average plasma concentration)",37.5 ng/mL
same,concentration at 4 h,"Lewis, rat, plasma, po, 3 mg/kg, oral 3 mg/kg, day 21, time 4, read-out: Mean Concentration (average plasma concentration)",45.8 ng/mL
same,concentration at 6 h,"Lewis, rat, plasma, po, 3 mg/kg, oral 3 mg/kg, day 21, time 6, read-out: Mean Concentration (average plasma concentration)",47 ng/mL
same,concentration at 8 h,"Lewis, rat, plasma, po, 3 mg/kg, oral 3 mg/kg, day 21, time 8, read-out: Mean Concentration (average plasma concentration)",40.6 ng/mL
same,concentration at 24 h,"Lewis, rat, plasma, po, 3 mg/kg, oral 3 mg/kg, day 21, time 24",12.2 ng/mL
same,AUC,"Lewis, rat, plasma, po, CIA-induced animals, day 21, 3 mg/kg, average, read-out: AUClnf (Mean)",904 ng·h/mL
same,Plasma Concentration,"oral 3 mg/kg, day 0, 0.25 h, individual test subjects, 3 mg/kg",28.7 ng/mL and 12.9 ng/mL and 8.85 ng/mL
same,Plasma Concentration,"oral 3 mg/kg, day 0, 0.5 h, individual test subjects, 3 mg/kg",39.3 ng/mL and 25.4 ng/mL and 19.5 ng/mL
same,Plasma Concentration,"oral 3 mg/kg, day 0, 1 h, individual test subjects, 3 mg/kg",78.4 ng/mL and 40.1 ng/mL and 34.7 ng/mL
same,Plasma Concentration,"oral 3 mg/kg, day 0, 2 h, individual test subjects, 3 mg/kg",66.0 ng/mL and 62.7 ng/mL
same,Plasma Concentration,"oral 3 mg/kg, day 0, 4 h, individual test subjects, 3 mg/kg",77.9 ng/mL and 80.7 ng/mL
same,Plasma Concentration,"oral 3 mg/kg, day 0, 6 h, individual test subjects, 3 mg/kg",77.1 ng/mL and 82.6 ng/mL
same,Plasma Concentration,"oral 3 mg/kg, day 0, 8 h, individual test subjects, 3 mg/kg",76.1 ng/mL and 74.4 ng/mL
same,Plasma Concentration,"oral 3 mg/kg, day 0, 24 h, individual test subjects, 3 mg/kg",35.6 ng/mL and 14.1 ng/mL and 17.3 ng/mL
same,Plasma Concentration,"oral 3 mg/kg, day 21, 0.25 h, individual test subjects, 3 mg/kg",14.7 ng/mL and 13.1 ng/mL
same,Plasma Concentration,"oral 3 mg/kg, day 21, 0.5 h, individual test subjects, 3 mg/kg",20.9 ng/mL and 19.8 ng/mL
same,Plasma Concentration,"oral 3 mg/kg, day 21, 1 h, individual test subjects, 3 mg/kg",27.0 ng/mL and 25.5 ng/mL
same,Plasma Concentration,"oral 3 mg/kg, day 21, 2 h, individual test subjects, 3 mg/kg",45.6 ng/mL and 33.8 ng/mL
same,Plasma Concentration,"oral 3 mg/kg, day 21, 4 h, individual test subjects, 3 mg/kg",44.3 ng/mL and 44.7 ng/mL
same,Plasma Concentration,"oral 3 mg/kg, day 21, 6 h, individual test subjects, 3 mg/kg",51.2 ng/mL and 45.7 ng/mL
same,Plasma Concentration,"oral 3 mg/kg, day 21, 8 h, individual test subjects, 3 mg/kg",45.6 ng/mL and 45.3 ng/mL
same,Plasma Concentration,"oral 3 mg/kg, day 21, 24 h, individual test subjects, 3 mg/kg",6.60 ng/mL and 15.6 ng/mL and 14.4 ng/mL
